Measurements taken from ChEMBL document CHEMBL3414464, “Design, synthesis, and evaluation of NO-donor containing carbonic anhydrase inhibitors to lower intraocular pressure” (J Med Chem, 2015).
Values after ≈ are worked out from the molar mass of the structure shown.

What was measured:
[1] = Drug level in iris ciliary body of pigmented male Dutch-belted rabbit treated with 2 x 25 uL topical dose of formulated compound in each eye and measured 4 hrs post dose by LC-MS/MS method; assay type: ADME, tissue-based, Oryctolagus cuniculus; details: in vivo, topical_or_ocular
[2] = Drug level in aqueous humor of pigmented male Dutch-belted rabbit treated with 2 x 25 uL topical dose of formulated compound in each eye and measured 4 hrs post dose by LC-MS/MS method; assay type: ADME, tissue-based, Oryctolagus cuniculus; details: in vivo, topical_or_ocular
Oryctolagus cuniculus = experiment: Reduction in intraocular pressure in pigmented male Dutch-belted rabbit assessed as intraocular pressure level at trough treated with 2% 2 x 25 uL topical dose of formulated compound in right eye and measured after 1 to 2 hrs by non-contact tonometry; assay type: functional
Cynomolgus monkey [3] = experiment: Reduction in intraocular pressure unilaterally lasered ocular hypertensive cynomolgus monkey treated with 2% 2 x 25 uL topical dose of formulated compound in right eye and measured after 2 hrs by ocular hypertension primate tonometry; assay type: functional, Macaca fascicularis
[4] = (§1) Drug level in iris ciliary body of pigmented male Dutch-belted rabbit assessed as compound formation treated with 2 x 25 uL topical dose of formulated (R)-3-(4-(Ethylamino)-1,1-dioxido-6-sulfamoyl-3,4-dihydro-2Hthieno[3,2-e][1,2]thiazin-2-yl)propyl nitrate in each eye and measured 4 hrs post dose by LC-MS/MS method; assay type: ADME, tissue-based, Oryctolagus cuniculus; details: in vivo, topical_or_ocular
[5] = as §1, with “aqueous humor” for “iris ciliary body”; assay type: ADME, tissue-based, Oryctolagus cuniculus; details: in vivo, topical_or_ocular
Cynomolgus monkey [6] = experiment: Reduction in intraocular pressure unilaterally lasered ocular hypertensive cynomolgus monkey treated with 1% 2 x 25 uL topical dose of formulated compound in right eye and measured after 2 hrs by ocular hypertension primate tonometry; assay type: functional, Macaca fascicularis
[7] = (§2) Drug level in iris ciliary body of pigmented male Dutch-belted rabbit assessed as compound formation treated with 2 x 25 uL topical dose of formulated (4S,6S)-4-Ethylamino-6-(3-nitrooxy-propyl)-7,7-dioxo-4,5,6,7-tetrahydro-7lambda6-thieno[2,3-b]thiopyran-2-sulfonic acid amide in each eye and measured 4 hrs post dose by LC-MS/MS method; assay type: ADME, tissue-based, Oryctolagus cuniculus; details: in vivo, topical_or_ocular
[8] = as §2, with “aqueous humor” for “iris ciliary body”; assay type: ADME, tissue-based, Oryctolagus cuniculus; details: in vivo, topical_or_ocular

Description for physchem: Solubility of the compound

SMILES: CCN[C@H]1CN(CCCO[N+](=O)[O-])S(=O)(=O)c2sc(S(N)(=O)=O)cc21
- Drug uptake [1]: Active
- Drug uptake [2]: Active
- Activity (Oryctolagus cuniculus): 5 mmHg
- Activity (Cynomolgus monkey [3]): 10.5 mmHg
- solubility (physchem): 2200 µg/mL (≈ 5.31 mM)

SMILES: CCN[C@H]1CN(CCCO)S(=O)(=O)c2sc(S(N)(=O)=O)cc21
- Drug metabolism [4]: metabolite_detected
- Drug metabolism [5]: metabolite_detected

SMILES: CCN[C@H]1CN(CCCOC)S(=O)(=O)c2sc(S(N)(=O)=O)cc21 [BRINZOLAMIDE]
- Activity (Cynomolgus monkey [6]): 2 mmHg
- solubility (physchem): 500 µg/mL (≈ 1.3 mM)

SMILES: CCN[C@H]1C[C@H](CCCO[N+](=O)[O-])S(=O)(=O)c2sc(S(N)(=O)=O)cc21
- Drug uptake [1]: Active
- Drug uptake [2]: Active
- Activity (Oryctolagus cuniculus): 5 mmHg
- solubility (physchem): 11300 µg/mL (≈ 27.3 mM)

SMILES: CCN[C@H]1C[C@H](CCCO)S(=O)(=O)c2sc(S(N)(=O)=O)cc21
- Drug metabolism [7]: metabolite_detected
- Drug metabolism [8]: metabolite_detected
